Experiment [1] has as its system human wt β amyloid peptide 1-40. The experiment is described as follows: Reverse ELISA: inhibition of immune complexed IgG (PAP) binding to wt β-amyloid peptide 1-40. As to conditions: summary of Table 7. From the text:
(§1) For this reason, a “reverse ELISA” technique was used to assess binding of the Fc region to ligands that bind to immune complexed IgG Fc. In these assays, the enzyme (HRP) was not covalently conjugated to the Fc portion of the secondary antibody. Rather, a preformed immune complex of peroxidase-rabbit (or mouse) anti-peroxidase IgG (“PAP” complex) was used. […] In the reverse ELISA system, an Fc CH2-CH3 cleft binding ligand (e.g., purified human C1q) was bound to microwell plates. In the absence of competitor, PAP complexes bound to the immobilized ligand and the reaction between HRP and its substrate produced a signal. This signal was reduced by polypeptides and compounds, such as those provided herein, that inhibited PAP binding to the immobilized ligand.
Different fragments of the Aβ peptide contribute to the amyloid plaques pathognomic for AD, and these Aβ fragments appear to stimulate microglial activation and subsequent AD neuropathology. Thus, experiments were conducted to test Aβ 1-40 for binding to immune complexes, and to determine whether the inhibitors described herein can inhibit binding of PAP immune complexes to Aβ peptide. PAP complexes were prepared by mixing 2 μl of rabbit anti-peroxidase with 50 μl of peroxidase in 1 ml distilled water. […] After washing, plates were incubated with ATBS for 15 minutes and read at 405 nm.
A general note: In an ELISA, binding on a coated surface is turned into a signal by an enzyme label.

The test system of experiment [2] is apo (non Cu, Zn containing) monomeric mutant SOD1 C57S (mSOD1C57S). The experiment is described as follows: Reverse ELISA: inhibition of immune complexed IgG (PAP) binding to mutant SOD1. Particulars: for mSOD1C57S (read at 405 nm): plates coated 24 h with mSOD1C57S, PAP/peptide 60 min, lower = more inhibition, positive control […]; for inhibition of mSOD1C57S binding to PAP (in words): summary of Table 3.
From the text: as §1
(§2) PAP complexes were formed as described in Example 2. PAP (100 μl) were pre-incubated with 100 μl of peptide for one hour, and control (200 μl of PAP) also was incubated for one hour. 100 μl of either PAP or PAP/peptide was added to Falcon microtiter plates that had been coated for 24 hours with either 0.8 μg/ml human wtSOD1 (Sigma-Aldrich) or apo (non Cu, Zn containing) monomeric mutant SOD1 C57S (mSOD1C57S). The PAP or peptide/PAP mixtures (100 μl) were added after one hour to either wt SOD1 or mSOD1C57S coated plates for 60 minutes. After washing, plates were incubated with ATBS for 15 minutes and read at 405 nm.

Another experiment concerns human wtSOD1. The experiment can be described thus: Reverse ELISA: inhibition of immune complexed IgG (PAP) binding to wt SOD1. As to conditions: for wt SOD1 (read at 405 nm): plates coated 24 h with 0.8 μg/ml human wtSOD1, PAP/peptide 60 min, lower = more inhibition, positive control 2.900; for inhibition of wt SOD1 binding to PAP (in words): summary of Table 3.
From the text: as §1, §2

A further experiment relates to human C1q. The experiment can be described thus: Reverse ELISA: inhibition of PAP immune complex binding to C1q coated plates. Particulars: summary of Table 1.
From the text: as §1
PAP complexes were formed by mixing 2 μl of rabbit anti-peroxidase (Sigma Chemicals, St. Louis, Mo.) with 50 μl of peroxidase (Sigma-Aldrich, St. Louis, Mo.) in 1 ml distilled water. PAP (100 μl) were pre-incubated with 100 μl of peptide or human C1q (Quidel Corp., San Diego, Calif.) for one hour. The C1q/PAP and peptide/PAP mixtures (100 μl) were then incubated with C1q coated plates for 30 minutes. After washing, plates were incubated with 2-2′-azinobis-3-ethylbenzthiazoline-6-sulfonate (ATBS; Quidel Corp.) for 15 minutes and read at 405 nm.

The next experiment deals with FcγIIa. The experiment can be described thus: Reverse ELISA: inhibition of PAP immune complex binding to FcγIIa coated plates. Particulars: summary of Table 2, FcR overall (FcγIIa, FcγIIb, FcγIII).
From the text: as §1
Once the reverse ELISA protocol was established using the C1q assay, the assay was redesigned using FcγIIa, FcγIIb and FcγIII in place of C1q. Highly purified FcγIIa, FcγIIb and FcγIII were immunoadsorbed onto plastic microwells. […]
Falcon microtiter plates were coated with 1:10 dilutions of highly purified FcγIIa, FcγIIb and FcγIII and incubated for 24 hours. […] After washing, plates were incubated with ABTS substrate for 15 minutes and read at 405 nm.

In experiment [3] the test system is human wt tau protein (441 residues). The experiment can be described thus: Reverse ELISA: inhibition of immune complexed IgG (PAP) binding to wt tau.
From the text: as §1
PAP complexes were formed by mixing 2 μl of rabbit anti-peroxidase with 50 μl of peroxidase in 1 ml distilled water. PAP (100 μl) were pre-incubated with 100 μl of peptide for one hour. Control PAP (200 μl) also was incubated for one hour. 100 μl of either PAP or PAP/peptide was added to Falcon microtiter plates that had been coated for 24 hours with 16.7 μg/ml human wt tau protein (441 residues; Sigma-Aldrich). The PAP or peptide/PAP mixtures (100 μl) were added after one hour to tau coated plates and incubated for 60 minutes. After washing, plates were incubated with ATBS for 15 minutes, and read at 405 nm.

Another experiment concerns human wt α-synuclein. The experiment can be described thus: Reverse ELISA: inhibition of immune complexed IgG (PAP) binding to wt α-synuclein.
From the text: as §1
PAP complexes were formed mixing 2 μl of rabbit anti-peroxidase (Sigma) with 50 μl of peroxidase (Sigma) in 1 ml distilled water. PAP (100 μl) were pre-incubated with 100 μl of peptide for one hour. Control PAP (200 μl) also was incubated for one hour. 100 μl of either PAP or PAP/peptide was added to Falcon microtiter plates that had been coated for 24 or 48 hours with 167 μg/ml human wt α-synuclein (Sigma-Aldrich), and the plates were incubated for 60 minutes. After washing, plates were incubated with ATBS for 30 minutes and then read at 405 nm.

A further experiment addresses Highly purified FcγIIa (UniProt P12318). The experiment is described as follows: reverse ELISA: PAP without peptide on FcγIIa-coated plate.
Experiment [4] addresses Human wt α-synuclein (Sigma-Aldrich) (human) (UniProt P37840). The experiment can be described thus: reverse ELISA: PAP without peptide on α-synuclein-coated plate (24 h coating).
Experiment [5] concerns the target Preformed immune complex of peroxidase-rabbit anti-peroxidase IgG (PAP complex) (horseradish) (UniProt P00433). The experiment is described as follows: reverse ELISA competition: peptide pre-incubated with PAP; competitor: immobilised human wt α-synuclein, plate coated 48 h.
Experiment [6] shares this target. The experiment is described as follows: reverse ELISA competition: peptide pre-incubated with PAP; competitor: immobilised mSOD1C57S.
Experiment [7] shares this target. The experiment can be described thus: reverse ELISA competition: peptide pre-incubated with PAP; competitor: immobilised human wt SOD1.
The target is the same in experiment [8]. The experiment can be described thus: reverse ELISA competition: peptide pre-incubated with PAP; competitor: immobilised human wt α-synuclein, plate coated 24 h.

Preformed immune complex of peroxidase-rabbit anti-peroxidase IgG (PAP complex) (horseradish), sequence (P00433 31-338, one chain of several): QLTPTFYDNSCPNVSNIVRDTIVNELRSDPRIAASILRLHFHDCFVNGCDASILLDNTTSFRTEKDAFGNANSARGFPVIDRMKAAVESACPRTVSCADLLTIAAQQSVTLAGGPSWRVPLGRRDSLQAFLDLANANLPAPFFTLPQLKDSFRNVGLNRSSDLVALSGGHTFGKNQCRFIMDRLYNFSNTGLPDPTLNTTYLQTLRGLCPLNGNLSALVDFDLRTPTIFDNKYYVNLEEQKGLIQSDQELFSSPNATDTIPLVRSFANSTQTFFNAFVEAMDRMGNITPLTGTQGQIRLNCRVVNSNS
Highly purified FcγIIa, sequence (P12318 34-217 limits assumed): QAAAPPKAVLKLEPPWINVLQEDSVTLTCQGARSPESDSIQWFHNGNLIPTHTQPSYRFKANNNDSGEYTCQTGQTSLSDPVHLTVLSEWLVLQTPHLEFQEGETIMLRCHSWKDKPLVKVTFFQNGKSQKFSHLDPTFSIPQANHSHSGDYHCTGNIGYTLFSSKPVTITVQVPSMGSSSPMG

Consider DCAWHLGELVWCT, for which the “inhibition of human wt β amyloid peptide binding to PAP (rank in words)” value in experiment [1] was “greatest inhibition”. For the same molecule, in experiment [2], the “mSOD1C57S (read at 405 nm)” value amounted to 0.592. Further, in [2] (listed as peptide 2), the “inhibition of mSOD1C57S binding to PAP (in words)” value (from here on “inhibition of mSOD1C57S binding”) was “inhibited”. For the same molecule, the “wt SOD1 (read at 405 nm)” value in the experiment with human wtSOD1 was found to be 0.292. Moreover, the “inhibition of wt SOD1 binding to PAP (in words)” value (“inhibition of wt SOD1 binding” below) in the experiment with human wtSOD1 (listed as peptide 2) is recorded as “inhibited”.

Regarding APPCARHLGELVWCT, the “inhibition of C1q binding (rank in words)” value in the experiment with human C1q is “next best result”.

Regarding APPDCAWHLGELVWCT, the “inhibition of FcR binding to PAP (rank in words)” value in the experiment on FcγIIa is listed as “greatest inhibition”. Also, the “inhibition of C1q binding (rank in words)” value with human C1q is listed as “greatest inhibition”. Also, in [2], the “mSOD1C57S (read at 405 nm)” value was determined as 0.226 and the “inhibition of mSOD1C57S binding” value was “greatest inhibition”. For the same molecule, the “inhibition of mSOD1C57S binding” value in experiment [2] (listed as peptide 16) is “best inhibition”. In [3] (plates coated 24 h with 16.7 μg/ml tau, lower = more inhibition, positive control 0.695, substrate only 0.060), the “Wt tau protein (read at 405 nm)” value came to 0.059. The “inhibition of human wt tau protein binding to PAP (rank in words)” value in experiment [3] (summary of Table 6) is recorded as “greatest inhibition”. In addition, in the experiment with human wtSOD1, the “wt SOD1 (read at 405 nm)” value turned out to be 0.277 and the “inhibition of wt SOD1 binding” value is given as “greatest inhibition”. Moreover, the “inhibition of wt SOD1 binding” value in the experiment with human wtSOD1 (listed as peptide 16) is given as “best inhibition”. Besides, the “Wt α-synuclein (read at 405 nm)” value with human wt α-synuclein (plates coated 24 h with 167 μg/ml α-synuclein, lower = more inhibition, positive control 1.433, substrate only 0.061) came to 0.088. For the same molecule, the “inhibition of α-synuclein binding to PAP (rank in words)” value with human wt α-synuclein (summary of Table 5) is reported as “greatest inhibition”.

As to “Preformed immune complex of peroxidase-rabbit anti-peroxidase IgG (PAP complex) (from UniProt P00433 31-338)”, the results for the OD 405 nm (in the experiment with Highly purified FcγIIa; in [4]) were 1.6 OD and 1.43 OD, respectively.

B1: Peptide … (SEQ ID NO:16) (peptide)
peptide: APPDCAWHLGELVWCT
Consider B1, for which the OD 405 nm stood at 0.136 OD in [5], 0.226 OD in experiment [6], 0.277 OD in experiment [7] and 0.088 OD in experiment [8].

The values above are taken from patent US20170065670A1, “METHODS FOR TREATING IMMUNE MEDIATED NEUROLOGICAL DISEASES” (Trinity Therapeutics, Inc., priority 2005, published 2017).
